In patent US20210353590A1 (priority 2020, published 2021):
In brackets after ≈: the same amount, converted by molar mass.

Tests used:
[1] = after 2 h, simulated intestinal fluid pH 7.2, 37±2° C., 50 rpm, 100 mg AND or equivalent
Experimental: The temperature of SIF was maintained at 37±2° C. At specified time intervals, 2 ml of SIF was taken and replaced with identical volume. Subsequently, all the samples were filtered through 0.22 μm membrane filter and assayed for drug content at 225 nm.

[2] = Pharmacokinetic analysis; conditions: rat
Experimental: The photoperiod of 12 h was maintained. […] 120 male rats were randomly divided into 30 groups of 4 animals each corresponding to the time points of blood collection. […] Rats were fasted (Approximately 4 h) before administration of drug. On the other hand, AND at the dose of 10-mg/kg was administered intravenously (i.v.) for comparative studies. Plasma concentration data was analyzed and computed for pharmacokinetic parameters. The following pharmacokinetic parameters were assessed: ke (h), t½ (h), Cmax (μg/ml), AUClast (h.μg/ml), AUCinf (h.μg/ml), MRT (h), CLTotal (L/h), Vd (L) and F%.

[3] = Solubility analysis by saturated solution method; conditions: 37±1° C., 24 hrs, 100 rpm
Experimental: After that, suspension was filtered and 0.1 ml of the filtrate was diluted with water up to 1 ml. The contents in the aliquot were measured by HPLC method (Sajeeb BK, 2015). All measurements were carried out in triplicate (n=3).

C=C1CC[C@@H]2[C@](C)(CO)[C@H](O)CC[C@@]2(C)[C@@H]1C/C=C1/C(=O)OC[C@H]1O [Andrographolide]
release [1]: 27.89±1.32%
AUC inf ([2]; Oral, 100 mg/kg): 1845.58 ± 305.77 µg·h/mL
AUC last ([2]; Oral, 100 mg/kg): 1223.6 ± 143.09 µg·h/mL
CLTotal ([2]; Oral, 100 mg/kg): 0.055 ± 0.008 L/h
Cmax ([2]; Oral, 100 mg/kg): 239.6 ± 75.37 µg/mL
Vd ([2]; Oral, 100 mg/kg): 0.468 ± 0.060 L
t1/2 ([2]; Oral, 100 mg/kg): 5.92 ± 0.21 h
tmax ([2]; Oral, 100 mg/kg): 2 h
F (bioavailability) ([2]; Oral, 100 mg/kg, versus AND i.v. 10 mg/kg): 15.87±3.84%
AUC inf ([2]; i.v., 10 mg/kg): 891.08 ± 179.75 µg·h/mL
AUC last ([2]; i.v., 10 mg/kg): 801.14 ± 181.07 µg·h/mL
CLTotal ([2]; i.v., 10 mg/kg): 0.011 ± 0.002 L/h
MRT ([2]; i.v., 10 mg/kg): 1.11 ± 0.04 h
Vd ([2]; i.v., 10 mg/kg): 0.013 ± 0.003 L
t1/2 ([2]; i.v., 10 mg/kg): 0.859 ± 0.031 h
MRT ([2]; in vivo, po, 100 mg/kg): 1.49 ± 0.0.085 h
solubility in aqueous phase [3]: 6.39 ± 0.47 µg/mL (≈ 18.2 µM)
